In patent publication US11795615B2 (priority 2015, dated 2023):

Columns and labels:
[1] = Side by side bleaching of Kraft pulp, hand sheet Kappa number, pH and ORP; settings: for Kappa No.: unbleached 30
[2] = Thermal activation in distilled water at pH 8.5 and 50° C.; assay type: physicochemical; settings: pH 8.5, 50° C.
[3] = system: microbial control in water; experiment: Microbial control in water at slightly alkaline pH; assay type: cell-based
Source text: In some embodiments, microbial control in water at slightly alkaline pH was compared between peracetate oxidant, […] bleach, peracetic acid and […] dioxide. Alkaline pH is encountered in a variety of applications where microbial control and sanitization is needed, including pulp and paper processing, cooling towers, water treatment and chill tanks in poultry processing. […].

[4] = gas; cited from earlier work
[5] = 20° C.; cited from earlier work
[6] = 1.13 g/L PAA equiv., initial pH 8.2, 30 min

Compound | Kappa No. ([1]; 4.0 g/L PAA equiv., initial pH 7.0, 30 min) | Kappa No. ([1]; 4.0 g/L PAA equiv., initial pH 8.9, 30 min) | Kappa unit reduction (bleaching efficiency) ([1]; hand sheet tests, initial Kappa number 30) | time of stable peracetic acid and hydrogen peroxide concentrations [2] | ORP ([2]; peracetate value within 40 minutes) | performance as antimicrobial disinfectant [3] | Final ORP [1, 6] [mV vs SHE] | Kappa No. [1, 6] | vapor pressure [4] | solubility limit in water [5] [% wt/vol]
CC(=O)OO [PAA, peracetic acid] | 31 | 29 | only up to one Kappa unit reduction | about 90 minutes | around 280 mV vs SHE | lowest performance |  |  |  | 
chlorine dioxide [ClO2] |  |  |  |  |  | performed well | 896 | 22 | greater than 1 atm | 0.8
